Measurements as given in patent US20230134843A1, “TREATMENT OF STEM CELL DEFICIENCY” (OSPEDALE SAN RAFFAELE S.R.L., priority 2020, published 2023).
Entries after “also recorded” stand apart in the source; their conditions may differ.

How the values were obtained:
[1] = test system: stem cell-like cells; experiment: Stem cell-like cells detection (BrdU and p63 staining), stem cell deficiency model; format: in vivo, mice; settings: Fosaprepitant 1 mg/mL (FOSA 1)
From the text: (§1) Eight-week-old male mice C57BL6/N (Charles River, Calco, Italy) (WT mice, n=18) and Tac1-deficient B6.Cg-Tac1tm1Bbm/J (Jackson Laboratories, Bar Harbor, Me., USA) (TAC1-KO mice, n=18) were used in all experiments. TAC1-KO mice are homozygous null for the Tac1 gene. […] The corneal thickness and transparency as well as the corneal nerve length are similar to C57BL/6 mice [Barbariga M, Rabiolo A, Fonteyne P, Bignami F, Rama P, Ferrari G. The effect of aging on nerve morphology and substance P expression in mouse and human corneas. Investig Ophthalmol Vis Sci 2018; 59:5329-35. https://doi.org/10.1167/iovs.18-24707.]. Each animal was anesthetized with an intraperitoneal injection of tribromoethanol (250 mg/kg) and a topical anesthetic was applied to their ocular surface prior to the surgical procedure. Total disepithelization was performed based on the model previously described [Amirjamshidi H, Milani B Y, Sagha H M, Movahedan A, Shafiq M A, Lavker R M, et al. Limbal fibroblast conditioned media: A non-invasive treatment for limbal stem cell deficiency. Mol Vis 2011; 17:658], using a blunt spatula to scrap the entire corneal epithelium, including the limbus. Then, fluorescein staining was used to confirm complete removal of the corneal epithelium under the blue light of a slit-lamp microscope. After wounding, eyes were treated with ophthalmic moxifloxacin 1 time/day for 1 week to […]. Fourteen days after disepithelization mice were euthanized using carbon dioxide inhalation and subsequent cervical dislocation. Corneas were collected for immunostaining and western blot analysis. All experimental protocols were approved by the Animal Care and Use Committee of the Istituto di Ricovero e cura a Carattere Scientifico San Raffaele Scientific Institute, in accordance with the ARVO Statement for the Use of Animals in Ophthalmic and Vision Research.
To evaluate the pharmacological inhibition of Substance P, mice received 10 μL of Fosaprepitant topically (IVEMEND, Merck Sharp & Dohme Ltd., Hoddes-don, UK) in two different concentrations: 0.1 mg/mL (FOSA 0.1, n=5) or 1 mg/mL (FOSA 1, n=5) 4 times/day every 2 hours […]. Control animals received instead 10 μL of vehicle (PBS) (WT, n=5). The treatments started the same day that corneal disepithelization was performed.
Immediately after corneal dispepithelization, animals were intraperitoneally injected with […] (BrdU) (50 ug/g body weight, ab142567, Abcam) twice a day (9 a.m and 4 p.m), for 7 days. […] The images were acquired by epifluorescence microscope (Leica CTR5500; Leica Microsystems, Wetzlar, Germany) (20×) and analyzed with Image J software. A negative control using only the secondary antibody was used to establish a fluorescence threshold. […]

[2] = test system: conjunctival cells; experiment: Conjunctival and corneal epithelial cell identification (CK8, CK19, CK12 immunofluorescence), stem cell deficiency model; format: in vivo, mice; settings: Fosaprepitant 1 mg/mL (FOSA 1)
From the text: as §1, with “All experimental protocols were approved by the Animal Care and Use Committee of the Istituto di Ricovero e cura a Carattere Scientifico San Raffaele Scientific Institute, in accordance with the ARVO Statement for the Use of Animals in Ophthalmic and Vision Research.” left out
The presence of conjunctival epithelial cells was evaluated by immunofluorescence. […] A negative control using only the secondary antibody was used to establish a fluorescence threshold. Then, the fluorescent intensity was quantified in terms of the percentage of positive area (% area) in the epithelium.

## C[C@@H](O[C@H]1OCCN(Cc2nc(=O)n(P(=O)(O)O)[nH]2)[C@H]1c1ccc(F)cc1)c1cc(C(F)(F)F)cc(C(F)(F)F)c1 [Fosaprepitant, [3-{[(2R,3S)-2-[(1R)-1-[3,5-bis(trifluoromethyl)phenyl]ethoxy]-3-(4-fluorophenyl)morpholin-4-yl]methyl}-5-oxo-2H-1,2,4-triazol-1-yl]phosphonic acid]
[1]
  p63 content compared to WT: no differences
[1]; p<0.01
  BrdU staining in the corneal epithelium compared to WT: significant increase
  number of stem cell-like cells (epithelial stem cells) compared to WT: increase number
[1]; p<0.05
  percentage of p63/BrdU colocalization compared to WT: increased percentage; also recorded: higher percentage
[2]; p<0.001
  CK12 expression in the corneal epithelium compared to WT: increase
[2]; p<0.01
  CK8 conjunctival cells infiltrating the cornea compared to WT: Reduced number; also recorded: reduction
[2]; p<0.05
  CK19 conjunctival cells compared to WT: significant decrease; also recorded: reduction
